Where two headings read alike, the source gives them in different places.
Legend:
[1] = system: morning glory (variety: murasaki); test: Activity in increasing flower budding of morning glory (spray, dark treatment, flower buds counted on the 14th day); assay type: in vivo
Method: Seeds of morning glory (variety: murasaki) (9 g) were subjected to concentrated sulfuric acid treatment for 20 minutes, and then allowed to stand under water flow overnight.
Subsequently, the seeds were placed on wet sea sand such that the emerging sites of the roots were directed upward for 24 hours, to thereby produce roots. The seeds having roots were planted in sea sand at a position 1 cm below the surface of the sand, and then cultured under continuous light irradiation (for about five days).
The entire plant bodies of the morning glory having leaves produced through this culture were transferred into a culture solution KNO3(250 mg), NH4NO3 (250 mg), KH2PO4 (250 mg), MgSO4.7H2O (250 mg), MnSO4.4H2O (1 mg), Fe-citrate n-hydrate (6 mg), H3BO3 (2 mg), CuSO4.5H2O (0.1 mg), ZeSO4.7H2O (0.2 mg), Na2MoO4.2H2O (0.2 mg), Ca(H2PO4)2.2H2O (250 mg) in distilled water (1,000 mL)].
Water or a 0.01, 0.1, 1 or 100 μM specific α-ketol fatty acid (1A) aqueous solution was sprayed to the cultured system in an amount of 0.1 mL/plant, then the plants were treated by darkness (for 13.5 hours).
Thereafter, the morning glory was grown under continuous light irradiation at 25° C. for 14 days, and on the 14th day the number of the flower buds was measured.
The results of eight specimens of morning glory were averaged.

[2] = Evaluation of stability: decomposition over time of the diluted aqueous solution, analyzed by HPLC; assay type: physicochemical; conditions: 16 mM ethanol solution diluted by water 30-fold, extended standing, HPLC (FIG. 3)
Method: The stability of the specific α-ketol fatty acid derivative (1A) was evaluated as follows. A 16 mM ethanol solution of the derivative (1A) was diluted by water 30-fold. This diluted solution was allowed to stand for an extended period at each of the temperatures of 4° C., 25° C. and 50° C. The extent of decomposition over time was analyzed by HPLC (column: CAPCELL PAK C-18 UG120, 4.6×250 mm, solvent: 50% acetonitrile+0.1% trifluoroacetic acid, flow rate: 1 ml/min, wavelength: 210 nm). For comparison, a solution prepared by similarly diluting the specific α-ketol fatty acid derivative (2A) was allowed to stand for an extended period at each of 25° C. and 50° C. The extent of decomposition was similarly investigated.

[3] = system: morning glory (variety: murasaki); conditions: from Japanese Patent Publication (A) No. 11-29410; cited from earlier work

Row | stability at 4° C. compared with 25° C. and 50° C. ([2]; 4° C.) | stability compared with (2A) ([2]; 25° C.) | stability compared with (2A) ([2]; 50° C.) | Structure (SMILES) | optimum concentration relative to the optimum concentration of (2A) ([1]; 1 μM versus 100 μM) | number of flower buds formed, increase ([1]; 0.01-100 μM aqueous solution sprayed 0.1 mL/plant, darkness 13.5 hours, counted on 14th day, average of eight specimens, water 1.25 buds/plant (FIG. 2)) [%] | optimum concentration for flower bud formation ([1]; morning glory, sprayed aqueous solution, FIG. 2) [µM] | optimum concentration for flower bud formation [3] [µM]
1 | far superior in stability | superior in stability | superior in stability | CCC(O)C(O)C/C=C\CC(=O)C(O)CCCCCCCC(=O)O (stereo not shown) [compound (1A), 9,15,16-trihydroxy-10-oxo-12(Z)-octadecenoic acid] | 1/100 | ≥ 200 | 1 | 
2 |  |  |  | CC/C=C\C/C=C\CC(=O)C(O)CCCCCCCC(=O)O (stereo not shown) [compound (2A), 9-hydroxy-10-oxo-12(Z),15(Z)-octadecadienoic acid] |  |  |  | 100

— patent US7544821B2, “α-Ketol unsaturated fatty acid derivative and plant growth regulating agent using same” (Shiseido Company, Ltd., priority 2004, dated 2009)
